Data on one molecule can be found in publication PMC4607728, “Effect of monovalent cations on the kinetics of hypoxic conformational change of mitochondrial complex I” (Biochimica et Biophysica Acta, 2015).

Assay [1] deals with T1, bovine mitochondrial complex I (proton-translocating NADH:ubiquinone oxidoreductase) (Bos taurus, UniProt P03887+P17694+P42026).
T1 construct: gene NDUFS2; with NADH-ubiquinone oxidoreductase chain 3; NADH dehydrogenase [ubiquinone]; 1 alpha subcomplex subunit 9, mitochondrial; NADH-ubiquinone oxidoreductase chain 2; NADH-ubiquinone oxidoreductase chain 4; NADH-ubiquinone oxidoreductase chain 4L; NADH-ubiquinone oxidoreductase chain 5; NADH-ubiquinone oxidoreductase chain 6; NADH-ubiquinone oxidoreductase 75 kDa subunit, mitochondrial; NADH dehydrogenase [ubiquinone] flavoprotein 1, mitochondrial; NADH dehydrogenase [ubiquinone] flavoprotein 2, mitochondrial; NADH dehydrogenase [ubiquinone] iron-sulfur protein 3, mitochondrial; NADH dehydrogenase [ubiquinone] iron-sulfur protein 8, mitochondrial
T1 sequence (P17694 34-463): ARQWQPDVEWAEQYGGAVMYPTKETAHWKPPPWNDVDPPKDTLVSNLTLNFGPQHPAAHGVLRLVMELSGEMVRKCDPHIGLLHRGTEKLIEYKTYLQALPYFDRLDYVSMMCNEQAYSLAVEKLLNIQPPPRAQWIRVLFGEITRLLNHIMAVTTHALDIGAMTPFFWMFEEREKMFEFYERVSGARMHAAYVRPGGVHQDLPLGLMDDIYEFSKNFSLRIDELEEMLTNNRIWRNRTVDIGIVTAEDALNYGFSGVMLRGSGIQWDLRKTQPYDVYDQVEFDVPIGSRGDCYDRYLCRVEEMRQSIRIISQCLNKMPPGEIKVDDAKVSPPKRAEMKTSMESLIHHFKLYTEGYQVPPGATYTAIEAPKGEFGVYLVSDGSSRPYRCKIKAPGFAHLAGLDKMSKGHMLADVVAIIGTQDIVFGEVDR
T1 sequence (P42026 38-216): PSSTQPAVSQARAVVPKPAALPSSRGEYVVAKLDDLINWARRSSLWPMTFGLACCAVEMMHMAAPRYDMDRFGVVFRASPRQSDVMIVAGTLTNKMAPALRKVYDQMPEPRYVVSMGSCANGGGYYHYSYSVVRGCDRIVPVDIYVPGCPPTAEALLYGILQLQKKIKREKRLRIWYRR
T1 sequence (P03887 whole entry): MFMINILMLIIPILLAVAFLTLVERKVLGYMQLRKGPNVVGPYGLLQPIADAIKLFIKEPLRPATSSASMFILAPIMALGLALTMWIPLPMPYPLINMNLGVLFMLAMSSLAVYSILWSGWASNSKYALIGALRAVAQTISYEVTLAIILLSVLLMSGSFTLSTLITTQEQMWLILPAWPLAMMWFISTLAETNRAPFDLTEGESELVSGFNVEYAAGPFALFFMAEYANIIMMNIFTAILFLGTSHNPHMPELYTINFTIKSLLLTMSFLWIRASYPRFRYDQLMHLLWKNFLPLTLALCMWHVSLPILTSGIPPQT
T1 sequence (P03898 whole entry partner): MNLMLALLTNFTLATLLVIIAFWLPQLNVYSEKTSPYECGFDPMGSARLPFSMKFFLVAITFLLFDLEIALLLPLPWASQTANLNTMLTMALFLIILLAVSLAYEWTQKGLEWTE
T1 sequence (P34943 36-380 partner): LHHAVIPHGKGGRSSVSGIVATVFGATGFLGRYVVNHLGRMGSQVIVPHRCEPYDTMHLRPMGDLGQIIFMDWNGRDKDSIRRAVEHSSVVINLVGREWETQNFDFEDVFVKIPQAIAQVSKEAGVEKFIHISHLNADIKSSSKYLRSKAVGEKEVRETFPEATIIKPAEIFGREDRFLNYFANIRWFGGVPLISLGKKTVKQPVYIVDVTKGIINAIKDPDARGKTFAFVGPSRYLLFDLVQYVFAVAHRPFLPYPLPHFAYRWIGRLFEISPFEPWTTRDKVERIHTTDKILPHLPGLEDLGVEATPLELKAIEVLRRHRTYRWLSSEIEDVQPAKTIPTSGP
Kind of assay: rate constant of D-to-A activation from lag phase of NADH oxidation, SMP. The assay is classed as biochemical. Particulars: D-form of complex I; pH 7.0, SET buffer, no alkali cations; control without EIPA 1.00 ± 0.04 min^-1; 165 μM NADH.

For assay [2], the target named is T1, bovine mitochondrial complex I (proton-translocating NADH:ubiquinone oxidoreductase). The assay is described as follows: NADH:Q1 oxidoreductase inhibition, SMP, NADH absorbance at […] nm. The assay is classed as biochemical. Particulars: neutral pH (7.0; Figure 7 caption gives NADH-oxidase reaction, A-form); SET buffer, 25 °C, 165 μM NADH; 5-7 min preincubation.

Consider `CCN(c1nc(N)c(C(=O)NC(=N)N)nc1Cl)C(C)C` [EIPA], for which the “kD → A at 20 μM EIPA” value in assay [1] was found to be 0.22 ± 0.04 min^− 1. Besides, in assay [2], the IC50 is approximately 40 µM.

In general, IC50 refers to the concentration that inhibits the measured activity by half. High values mean weaker potency, low ones greater potency.
